The values below are quoted from earlier work in US20150125548A1, “COMBINATION NUTRITIONAL AND NUTRACEUTICAL PRODUCTS” (Requis Pharmaceuticals Inc., priority 2011, published 2015).

Molecules are shown by their SMILES.

The conditions of series [1]: after absorption.
The target of a further series is tryptophan hydroxylase (Mus musculus, UniProt Q8CGV2). As to conditions: 10 mM magnesium chloride added together with 1 mM ATP; 100,000 g supernatant from mouse midbrain.
Sequence of tryptophan hydroxylase (Q8CGV2 whole entry): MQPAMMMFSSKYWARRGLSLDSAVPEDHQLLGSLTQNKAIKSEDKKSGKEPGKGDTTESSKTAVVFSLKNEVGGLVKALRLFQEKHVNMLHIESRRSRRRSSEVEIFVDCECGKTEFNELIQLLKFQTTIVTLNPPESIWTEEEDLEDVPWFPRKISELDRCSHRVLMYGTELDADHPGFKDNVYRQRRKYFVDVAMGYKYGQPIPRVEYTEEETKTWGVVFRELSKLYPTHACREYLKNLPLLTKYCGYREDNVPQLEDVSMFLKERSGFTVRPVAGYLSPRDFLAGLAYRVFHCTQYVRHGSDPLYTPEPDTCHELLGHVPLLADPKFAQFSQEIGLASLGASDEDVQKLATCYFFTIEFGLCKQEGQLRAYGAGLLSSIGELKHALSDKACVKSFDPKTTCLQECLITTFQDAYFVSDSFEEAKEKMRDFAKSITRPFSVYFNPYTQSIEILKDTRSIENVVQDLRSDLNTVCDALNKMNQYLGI

Regarding `N[C@@H](Cc1c[nH]c2ccccc12)C(=O)O` [tryptophan, (2S)-2-amino-3-(1H-indol-3-yl)propanoic acid], the “fraction present in blood as the free amino acid (rest bound to plasma proteins)” value in series [1] was “around 20%”.
As to `[Cl-].[Cl-].[Mg+2]` [magnesium chloride], the “increase of enzyme activity above control” value on tryptophan hydroxylase is on record as 50-70%.
